Experimental findings from article PMC5819996 (Cell chemical biology, 2017) are described below.

In experiment [1] the target is MBP-UbiB^CΔ47 (Escherichia coli, UniProt P0A6A0). The experiment in a line: malachite green ATPase assay. It counts as biochemical. To be noted: 100 μM ATP, 4 mM MgCl2, 1 mM Triton X-100 and 2-alkylphenols, pH 7.5, 30 °C.
For experiment [2], the target named is COQ8A^NΔ250 (Homo sapiens, UniProt Q8NI60). The experiment in a line: malachite green ATPase assay. The experiment is classed as biochemical. The following applies: 100 μM ATP, 4 mM MgCl2, 1 mM Triton X-100 and 2-alkylphenols, pH 7.5, 30 °C.
Chain of COQ8A^NΔ250 (Q8NI60 251-647, stated change not applied): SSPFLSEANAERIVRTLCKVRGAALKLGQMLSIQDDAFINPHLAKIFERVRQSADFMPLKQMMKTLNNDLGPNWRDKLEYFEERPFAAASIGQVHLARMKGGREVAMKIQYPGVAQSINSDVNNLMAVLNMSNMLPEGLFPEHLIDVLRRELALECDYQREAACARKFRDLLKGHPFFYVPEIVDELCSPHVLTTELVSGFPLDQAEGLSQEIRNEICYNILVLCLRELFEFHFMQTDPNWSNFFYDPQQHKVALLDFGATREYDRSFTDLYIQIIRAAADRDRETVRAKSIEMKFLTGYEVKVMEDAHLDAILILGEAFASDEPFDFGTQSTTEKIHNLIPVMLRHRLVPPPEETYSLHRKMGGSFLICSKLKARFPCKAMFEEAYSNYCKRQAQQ

Chain of MBP-UbiB^CΔ47 (P0A6A0 1-499, stated change not applied): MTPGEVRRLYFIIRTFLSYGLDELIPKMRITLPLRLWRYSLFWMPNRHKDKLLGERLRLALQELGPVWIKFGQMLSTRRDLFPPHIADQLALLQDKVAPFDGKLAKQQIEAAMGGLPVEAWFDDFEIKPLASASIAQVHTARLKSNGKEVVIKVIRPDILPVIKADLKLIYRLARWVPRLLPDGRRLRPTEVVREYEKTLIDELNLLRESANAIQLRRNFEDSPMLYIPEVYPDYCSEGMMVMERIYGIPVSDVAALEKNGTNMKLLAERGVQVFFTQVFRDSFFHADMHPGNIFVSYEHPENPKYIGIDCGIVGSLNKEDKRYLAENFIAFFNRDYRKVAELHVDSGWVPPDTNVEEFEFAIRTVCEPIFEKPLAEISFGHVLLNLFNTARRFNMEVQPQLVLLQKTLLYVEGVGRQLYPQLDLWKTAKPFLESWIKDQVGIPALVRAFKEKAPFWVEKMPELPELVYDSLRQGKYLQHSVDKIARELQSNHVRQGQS

Take `Nc1ncnc2c1ncn2[C@@H]1O[C@H](COP(=O)(O)OP(=O)(O)OP(=O)(O)O)[C@@H](O)[C@H]1O` [ATP]: the “malachite green ATPase assay” value in experiment [1] and in experiment [2] was 2-alkylphenols with Triton X-100 increase the ATPase activity of UbiB family members throughout.
